# Laboratory results from patent publication EP4647433A1, “SHP2 INHIBITOR AND USES THEREOF” (Kanaph Therapeutics Inc., priority 2023, dated 2024).
# What was measured:
# H358 cells = assay: Cell viability (3D spheroid, 3D CellTiter-Glo); format: cell-based; conditions: Homo sapiens, NCI-H358, 120 h; H358 spheroids, 5 days treatment
# Method in brief: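 H358 human NSCLC cells (4 x 10^3/well) grown 72 h in RPMI-1640 with 10% FBS to form spheroids, then treated with serially diluted compounds (1.5 nM–10 µM) for 5 days. Viability read by 3D CellTiter-Glo luminescence after 25 min at room temperature; IC50 from concentration–response.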
# in vivo = conditions: mouse, 20 mg/kg
# Method: (§1) Nine male CD-1 mice (ICR mouse) aged 6 to 9 weeks were treated with the compounds according to the Examples at a concentration of 20 mg/kg. 0.025 mL of blood and brain tissue were collected at 1 hour, 8 hours, and 24 hours post-treatment, respectively. The collected blood was placed in an EDTA-K2 tube, centrifuged at 4°C at 3,200 x g for 10 minutes, and the supernatant plasma was collected. The brain tissue samples were collected immediately after euthanizing the CD-1 mice after blood collection and performing cardiac perfusion with cold saline. After collection, the brain tissues were washed with cold saline, wiped and dried, weighed, and homogenized using a homogenization buffer (15 mM PBS (pH 7.4): MeOH = 2:1) at a ratio of 1:3 (1 g of tissue to 3 mL of buffer, dilution ratio 4). Plasma and homogenized brain tissue samples were each transferred to a polypropylene microcentrifuge tube and stored at -60°C or lower. The concentration of compounds distributed in plasma and brain tissue was analyzed using LC-MS/MS, and the distribution in brain tissue compared to plasma was calculated as follows. Brain-to-plasma ratio = AUC(0-t) brain tissue /AUC(0-t) plasma [formula]
# (§2) In the Brain-plasma Pharmacokinetics assay, when a brain-to-plasma ratio value was 0.05 or more and less than 0.1, + was indicated, when a brain-to-plasma ratio value was 0.1 or more and less than 0.25, ++ was indicated, and when a brain-to-plasma ratio value was more than 0.25, +++ was indicated.
# phospho-ERK = phospho-ERK assay (AlphaLisa) in H358 cells; format: cell-based; conditions: Homo sapiens, NCI-H358, 1.5 hours incubation, read-out: pERK assay (IC50)
# Method: H358 [20,000 cell/well] was contained in 40 µL of the cell culture solution (RPMI, 10% FBS, penicillin, streptomycin) and placed on a 384-well plate. After 24 hours, the serially diluted compound according to the Examples (concentration of minimum 0.13 nM, maximum 10 µM) was contained in 10 µL of the cell culture solution, put into wells containing cells, and incubated in a cell incubator for 1.5 hours. As a positive control group, the selective SHP2 inhibitor, TNO155 (Chemietek, US; concentration ranging from 0.13 nM to 10 µM) was used.
# Thereafter, phospho-ERK was labeled using an AlphaLisa system from PerkinElmer according to the manufacturer's instructions, and then fluorescence (680 nm excitation wavelength, 615 nm emission wavelength) values were measured using a Varioskan equipment from Thermo. IC50 values were obtained using Graphad's Prism from the measured values depending on the concentration.
# Intracellular SHP2 activity can be confirmed by measuring the degree of phosphorylation of ERK (extracellular signal regulated kinase), which represents Ras/Raf/ERK, a downstream signal pathway of SHP2. Inhibition of ERK phosphorylation by SHP2 inhibitors was confirmed through phospho-ERK analysis, which confirmed that the SHP2 inhibitors of the present disclosure have excellent activity in inhibiting ERK phosphorylation mediated by SHP2.
# [1] = Brain-plasma Pharmacokinetics; conditions: mouse, 20 mg/kg
# Method: as §1, §2
# SHP2 = molecular target: T1, SHP2 (Homo sapiens, UniProt Q06124); assay: Phosphatase assay (PTPase assay, DiFMUP substrate); format: biochemical; conditions: full length SHP2 100 pM activated with SHP2 activating peptide, DiFMUP 80 µM, 2 hours; read-out: PTPase assay (IC50)
# T1 construct: SHP2 (full length, diluted to 100 pM final concentration in reaction buffer, BPS bioscience, US); purchased BPS bioscience, US
# T1 sequence (Q06124 1-593): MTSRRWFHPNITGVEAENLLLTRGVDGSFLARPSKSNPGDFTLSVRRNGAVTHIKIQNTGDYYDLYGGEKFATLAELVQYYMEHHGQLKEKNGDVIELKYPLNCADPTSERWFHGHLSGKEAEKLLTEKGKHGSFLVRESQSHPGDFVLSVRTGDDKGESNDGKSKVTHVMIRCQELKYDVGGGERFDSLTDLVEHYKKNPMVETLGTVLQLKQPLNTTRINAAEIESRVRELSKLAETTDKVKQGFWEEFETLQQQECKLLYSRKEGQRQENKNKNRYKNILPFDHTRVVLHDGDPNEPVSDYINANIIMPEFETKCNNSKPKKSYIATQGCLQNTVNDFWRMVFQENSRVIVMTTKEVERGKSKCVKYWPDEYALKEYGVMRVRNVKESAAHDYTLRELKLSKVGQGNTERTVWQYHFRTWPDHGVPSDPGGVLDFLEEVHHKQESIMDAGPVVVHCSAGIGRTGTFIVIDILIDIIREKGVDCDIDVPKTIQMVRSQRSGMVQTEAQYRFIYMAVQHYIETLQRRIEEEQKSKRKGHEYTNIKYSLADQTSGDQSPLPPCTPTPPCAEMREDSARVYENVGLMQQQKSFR
# Method in brief: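 Full-length SHP2 at 100 pM final was activated with SHP2 activating peptide for 30 min in HEPES buffer pH 7.2 with NaCl, KCl, EDTA, DTT and P-20, then compound (0.6 nM–10 µM) added. DiFMUP (80 µM) was reacted for 2 h in total; fluorescence read at 340/450 nm and IC50 fitted from concentration-response.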
IC50 (H358 cells),Kp at 24 h (in vivo),IC50 (phospho-ERK),"Kp at 24 h ([1]; male, CD-1 (ICR), brain/plasma)",IC50 (SHP2),Compound,Kp at 24 h ([1]; brain)
< 0.01 µM,–,0.045 to 1.5 µM,> 0.25,0.003 to 0.1 µM,"COC(C)(C)Cn1cnc2ccc(Sc3cnc(N4CCC5(CC4)Cc4ccccc4[C@H]5N)cn3)cc2c1=O [Example 29, (S)-6-((5-(1-amino-1,3-dihydrospiro[indene-2,4'-piperidin]-1'-yl)pyrazin-2-yl)thio)-3-(2-methoxy-2-methylpropyl)quinazolin-4(3H)-one]",–
< 0.01 µM,–,0.045 to 1.5 µM,> 0.25,0.003 to 0.1 µM,"COC(C)(C)Cn1ccc2ccc(Sc3cnc(N4CCC5(CC4)Cc4ccccc4[C@H]5N)cn3)cc2c1=O [Example 44, (S)-7-((5-(1-amino-1,3-dihydrospiro[indene-2,4'-piperidin]-1'-yl)pyrazin-2-yl)thio)-2-(2-methoxy-2-methylpropyl)isoquinolin-1(2H)-one]",–
< 0.01 µM,–,0.045 to 1.5 µM,0.1 to 0.25,< 0.003 µM,"Cn1ccc2ccc(Sc3cnc(N4CCC5(CC4)Cc4ccccc4[C@H]5N)cn3)cc2c1=O [Example 45, (S)-7-((5-(1-amino-1,3-dihydrospiro[indene-2,4'-piperidin]-1'-yl)pyrazin-2-yl)thio)-2-methylisoquinolin-1(2H)-one]",–

# The remaining lines, values behind:
Compound,IC50 (H358 cells),Kp at 24 h (in vivo),IC50 (phospho-ERK),"Kp at 24 h ([1]; male, CD-1 (ICR), brain/plasma)",IC50 (SHP2),Kp at 24 h ([1]; brain)
"COC(C)(C)Cn1cnc2ccc(Sc3cnc(N4CCC5(CC4)Oc4ccccc4[C@H]5N)cn3)c(Cl)c2c1=O [Example 50, (R)-6-((5-(3-amino-3H-spiro[benzofuran-2,4'-piperidin]-1'-yl)pyrazin-2-yl)thio)-5-chloro-3-(2-methoxy-2-methylpropyl)quinazolin-4(3H)-one]",< 0.01 µM,> 0.25,–,–,–,–
"COC(C)(C)Cn1cnc2ccc(Sc3nc(CO)c(N4CCC5(CC4)Cc4ccccc4[C@H]5N)nc3C)c(Cl)c2c1=O [Example 35, (S)-6-((5-(1-amino-1,3-dihydrospiro[indene-2,4'-piperidin]-1'-yl)-6-(hydroxymethyl)-3-methylpyrazin-2-yl)thio)-5-chloro-3-(2-methoxy-2-methylpropyl)quinazolin-4(3H)-one]",< 0.01 µM,–,0.045 to 1.5 µM,0.1 to 0.25,< 0.003 µM,–
"Cn1cnc2ccc(Sc3cnc(N4CCC5(CC4)Cc4ccccc4[C@H]5N)cn3)c(Cl)c2c1=O [Example 7, (S)-6-((5-(1-amino-1,3-dihydrospiro[indene-2,4'-piperidin]-1'-yl)pyrazin-2-yl)thio)-5-chloro-3-methylquinazolin-4(3H)-one]",< 0.01 µM,–,< 0.045 µM,–,< 0.003 µM,0.1 to 0.25
"COC(C)(C)Cn1ccc2ccc(Sc3cnc(N4CCC5(CC4)Cc4ccccc4[C@H]5N)cn3)c(Cl)c2c1=O [Example 43, (S)-7-((5-(1-amino-1,3-dihydrospiro[indene-2,4'-piperidin]-1'-yl)pyrazin-2-yl)thio)-8-chloro-2-(2-methoxy-2-methylpropyl)isoquinolin-1(2H)-one]",< 0.01 µM,–,0.045 to 1.5 µM,> 0.25,< 0.003 µM,–
"CC(C)n1ccc2ccc(Sc3ncc(N4CCC5(CC4)Cc4ccccc4[C@H]5N)nc3N)c(Cl)c2c1=O [Example 48, (S)-7-((3-amino-5-(1-amino-1,3-dihydrospiro[indene-2,4'-piperidin]-1'-yl)pyrazin-2-yl)thio)-8-chloro-2-isopropylisoquinolin-1(2H)-one]",< 0.01 µM,–,0.045 to 1.5 µM,0.1 to 0.25,< 0.003 µM,–
